Reference: ChEMBL document CHEMBL5126518, “Quercetin derivatives: Drug design, development, and biological activities, a review” (Eur J Med Chem, 2022)
Converted amounts (≈) assume the structure as drawn.

How the values were obtained:
[1] = system: Candida albicans; assay: Antifungal activity against Candida albicans 13/15 assessed as fungal growth inhibition measured after 24 hrs by microdilution assay; type: functional
[2] = system: Candida albicans; assay: Antifungal activity against Candida albicans 527/14 assessed as fungal growth inhibition measured after 24 hrs by microdilution assay; type: functional
[3] = system: Candida albicans; assay: Antifungal activity against Candida albicans 475/15 assessed as fungal growth inhibition measured after 24 hrs by microdilution assay; type: functional
[4] = system: Candida albicans; assay: Antifungal activity against Candida albicans 10/15 assessed as fungal growth inhibition measured after 24 hrs by microdilution assay; type: functional
[5] = target: UDP-galactopyranose mutase (Mycobacterium tuberculosis, UniProt P9WIQ1); assay: Binding affinity to Mycobacterium tuberculosis UGM assessed as dissociation constant by fluorescence polarization assay
[6] = target: UDP-galactopyranose mutase (Mycobacterium tuberculosis) (UniProt P9WIQ1); assay: Inhibition of Mycobacterium tuberculosis UGM at 20 uM by HPLC inhibition assay relative to control
[7] = system: LN-229; assay: Antiproliferative activity against human LN-229 cells assessed as reduction in cell viability incubated for 48 hrs by SRB assay; type: functional
[8] = system: U-87 MG; assay: Antiproliferative activity against human U87 cells assessed as reduction in cell viability incubated for 48 hrs by SRB assay; type: functional, U-87MG ATCC
[9] = target: Type-1 angiotensin II receptor (Homo sapiens, UniProt P30556); assay: Inhibition of human AT1R expressed in HEK293 cells by non-linear regression analysis; type: cell-based
[10] = system: Influenza A virus; assay: Antiviral activity against influenza A/PR/8/34 H1N1 virus infected in MDCK cells assessed as cell growth inhibition measured after 48 hrs by SRB assay; type: functional, organism-based; details: A/PR/8/34 H1N1, MDCK
[11] = Cytotoxicity against MDCK cells assessed as reduction in cell viability incubated for 48 hrs by SRB assay; type: toxicity, cell-based, Canis lupus familiaris; details: dog
[12] = system: Staphylococcus aureus; assay: Antibacterial activity against Staphylococcus aureus ATCC 12600 assessed as cell growth inhibition by agar dilution method; type: functional
[13] = system: Listeria monocytogenes; assay: Antibacterial activity against Listeria monocytogenes ATCC 15313 assessed as cell growth inhibition by agar dilution method; type: functional
[14] = Inhibition of Escherichia coli topoisomerase 2 supercoiling activity by gel electrophoresis
[15] = Inhibition of Escherichia coli topoisomerase 4 decatenation activity by gel electrophoresis
[16] = system: Escherichia coli; assay: Antibacterial activity against Escherichia coli ATCC 25922 assessed as cell growth inhibition by agar dilution method; type: functional
[17] = system: Staphylococcus gallinarum; assay: Antibacterial activity against Staphylococcus gallinarum ATCC 9184 assessed as cell growth inhibition by agar dilution method; type: functional
[18] = system: MDA-MB-231; assay: Antiproliferative activity against human MDA-MB-231 cells assessed as cell growth inhibition measured after 48 hrs by MTT assay relative to control; type: functional; set-up: scale not given: the % may be the effect or the level left
[19] = Antioxidant activity assessed as DPPH radical scavenging activity after 30 mins under dark condition; type: functional
[20] = system: MDA-MB-231; assay: Antiproliferative activity against human MDA-MB-231 cells assessed as cell growth inhibition measured after 48 hrs by MTT assay; type: functional, cell-based; details: MDA-MB-231, 48 h
[21] = system: MDA-MB-231; assay: Antiproliferative activity against human MDA-MB-231 cells assessed as cell growth inhibition measured after 72 hrs by MTT assay; type: functional, cell-based; details: MDA-MB-231, 72 h
[22] = Non-competitive inhibition of xanthine oxidase (unknown origin) at 0.4 uM using xanthine as substrate preincubated with substrate for 1 min followed by compound addition by double beam spectrophotometer analysis relative to control
[23] = Antioxidant activity assessed as ABTS radical scavenging activity at 15 wt% incubated for 6 mins in presence of Si and PCL50 by UV spectrophotometer analysis relative to control; type: functional
[24] = Antioxidant activity assessed as ABTS radical scavenging activity at 5 wt% incubated for 6 mins in presence of Si and PCL50 by UV spectrophotometer analysis relative to control; type: functional
[25] = target: Urease subunit alpha/Urease subunit beta (Helicobacter pylori (strain ATCC 700392 / 26695) (Campylobacterpylori), UniProt P69996); assay: Inhibition of Helicobacter pylori urease assessed as measuring ammonia production incubated for 1.5 hr by indophenol method; type: protein-complex assay
[26] = system: MCF7; assay: Induction of apoptosis in human MCF7 cells assessed as early apoptotic cells at 50 uM measured after 12 hrs by annexin V-FITC/propidium iodide staining based flow cytometry relative to control; type: functional
[27] = Antioxidant activity assessed as DPPH radical scavenging activity up to 2 mM relative to control; type: functional
[28] = Competitive inhibition of xanthine oxidase (unknown origin) at 0.4 uM using xanthine as substrate preincubated with substrate for 1 min followed by compound addition by double beam spectrophotometer analysis relative to control
[29] = system: J774.A1; assay: Inhibition of LPS-induced NO production in mouse J774.A1 cells pre-incubated with compound for 1 hr followed by LPS stimulation for 24 hrs by ELISA assay; type: functional, cell-based
[30] = Antioxidant activity assessed as ABTS radical scavenging activity at 10 wt% incubated for 6 mins in presence of Si and PCL50 by UV spectrophotometer analysis relative to control; type: functional
[31] = system: MCF7; assay: Antiproliferative activity against human MCF7 assessed as reduction in cell viability incubated for 48 hrs by MTT assay; type: functional
[32] = Metal chelating activity assessed as compound-Cu2+ complex formation by measuring binding energy
[33] = Metal chelating activity assessed as compound-Fe2+ complex formation by measuring binding energy
[34] = Metal chelating activity assessed as Zn2+-compound complex formation by measuring binding energy
[35] = species: Mus musculus; assay: Anticancer activity against ApcMin harboring mouse model assessed as fold increase in p53 expression measured after 16 weeks by […]; type: functional, Neoplasm
[36] = system: HCT-116; assay: Anticancer activity against human HCT-116 cells xenografted in mouse assessed as fold decrease in tumor growth measured after 3 weeks by digital caliper method; type: functional
[37] = system: HCT-116; assay: Antiproliferative activity against human HCT-116 cells assessed as cell growth inhibition by Z2 coulter counter based analysis; type: functional
[38] = target: Bcl-2-like protein 1 (Homo sapiens) (UniProt Q07817); assay: Binding affinity to recombinant human Bcl-xL assessed as change in enthalpy by MM-PBSA method
[39] = system: PC-3; assay: Cytotoxicity against human PC-3 cells assessed as cell growth inhibition measured after 48 hrs by MTT assay; type: functional
[40] = Selectivity ratio of GI50 for cytotoxicity against human DU-145 cells to GI50 for cytotoxicity against human PC-3 cells by MTT assay; type: functional

Sequence of UDP-galactopyranose mutase (Mycobacterium tuberculosis) (P9WIQ1 whole entry, looked up): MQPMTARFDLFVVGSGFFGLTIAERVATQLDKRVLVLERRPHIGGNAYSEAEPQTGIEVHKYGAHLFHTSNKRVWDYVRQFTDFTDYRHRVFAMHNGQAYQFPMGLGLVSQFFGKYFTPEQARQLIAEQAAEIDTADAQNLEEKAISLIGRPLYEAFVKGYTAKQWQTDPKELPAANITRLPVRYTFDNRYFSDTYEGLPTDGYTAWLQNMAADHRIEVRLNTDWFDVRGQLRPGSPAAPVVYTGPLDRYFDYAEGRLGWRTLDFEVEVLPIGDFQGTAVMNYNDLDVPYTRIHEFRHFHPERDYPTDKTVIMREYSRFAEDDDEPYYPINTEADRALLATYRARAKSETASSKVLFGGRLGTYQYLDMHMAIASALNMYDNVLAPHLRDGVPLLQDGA
Sequence of UDP-galactopyranose mutase (P9WIQ1 whole entry): as the sequence (P9WIQ1 whole entry, looked up) above
Sequence of Bcl-2-like protein 1 (Homo sapiens) (Q07817 whole entry): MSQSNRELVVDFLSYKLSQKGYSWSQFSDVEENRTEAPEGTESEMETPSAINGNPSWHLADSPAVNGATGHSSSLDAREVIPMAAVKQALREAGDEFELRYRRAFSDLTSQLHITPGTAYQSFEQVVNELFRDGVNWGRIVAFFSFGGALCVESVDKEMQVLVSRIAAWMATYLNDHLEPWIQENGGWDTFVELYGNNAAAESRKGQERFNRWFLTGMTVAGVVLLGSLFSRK
Sequence of Urease subunit alpha/Urease subunit beta (P69996 whole entry): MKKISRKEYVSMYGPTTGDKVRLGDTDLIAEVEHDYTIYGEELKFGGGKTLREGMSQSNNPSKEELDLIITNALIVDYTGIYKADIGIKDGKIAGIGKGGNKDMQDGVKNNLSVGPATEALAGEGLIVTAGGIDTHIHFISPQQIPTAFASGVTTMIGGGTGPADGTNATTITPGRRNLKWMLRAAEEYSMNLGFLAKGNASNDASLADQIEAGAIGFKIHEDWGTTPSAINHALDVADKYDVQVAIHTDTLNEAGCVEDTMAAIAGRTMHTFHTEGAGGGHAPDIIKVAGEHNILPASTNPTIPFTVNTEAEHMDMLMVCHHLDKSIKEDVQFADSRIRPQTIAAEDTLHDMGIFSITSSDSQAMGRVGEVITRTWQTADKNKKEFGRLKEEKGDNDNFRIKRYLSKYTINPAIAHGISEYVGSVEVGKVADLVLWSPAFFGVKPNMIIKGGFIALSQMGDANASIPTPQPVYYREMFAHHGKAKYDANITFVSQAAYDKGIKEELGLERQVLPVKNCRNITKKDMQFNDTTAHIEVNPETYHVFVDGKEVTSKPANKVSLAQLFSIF
Sequence of Urease subunit alpha/Urease subunit beta (P14916 whole entry, further chain): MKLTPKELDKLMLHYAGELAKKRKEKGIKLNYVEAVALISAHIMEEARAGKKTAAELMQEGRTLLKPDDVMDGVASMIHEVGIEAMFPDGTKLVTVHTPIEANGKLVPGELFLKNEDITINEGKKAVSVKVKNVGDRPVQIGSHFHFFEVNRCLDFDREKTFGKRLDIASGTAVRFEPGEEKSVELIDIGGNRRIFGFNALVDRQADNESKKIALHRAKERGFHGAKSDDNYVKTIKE
Sequence of Type-1 angiotensin II receptor (P30556 whole entry): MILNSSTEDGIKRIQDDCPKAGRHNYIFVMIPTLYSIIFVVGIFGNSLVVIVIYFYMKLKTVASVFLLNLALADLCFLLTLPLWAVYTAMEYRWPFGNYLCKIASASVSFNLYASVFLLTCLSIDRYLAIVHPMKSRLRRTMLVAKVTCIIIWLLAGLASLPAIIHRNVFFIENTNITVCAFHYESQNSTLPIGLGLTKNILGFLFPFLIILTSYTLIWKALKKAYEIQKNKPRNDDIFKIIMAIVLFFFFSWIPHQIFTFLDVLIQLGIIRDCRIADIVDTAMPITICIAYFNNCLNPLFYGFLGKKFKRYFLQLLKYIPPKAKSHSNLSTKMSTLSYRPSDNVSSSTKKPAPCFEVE

Structure (SMILES): C[C@@H]1O[C@@H](OC[C@H]2O[C@@H](Oc3c(-c4ccc(O)c(O)c4)oc4cc(O)cc(O)c4c3=O)[C@H](O)[C@@H](O)[C@@H]2O)[C@H](O)[C@H](O)[C@H]1O [RUTIN]
- MIC [1]: 37.5 µg/mL (≈ 61.4 µM)
- MIC [2]: 37.5 µg/mL (≈ 61.4 µM)
- MIC [3]: 37.5 µg/mL (≈ 61.4 µM)
- MIC [4]: 37.5 µg/mL (≈ 61.4 µM)

Structure (SMILES): O=c1c(O)c(-c2ccc(O)c(O)c2)oc2c(CN3CCCC3)c(O)cc(O)c12
- Kd [5]: > 2000 µM
- inhibition [6]: 47.8%

Structure (SMILES): CCCCc1nc(Cl)c(COC(=O)CCC(=O)Oc2cc(-c3oc4cc(O)cc(O)c4c(=O)c3O)ccc2O)n1Cc1ccc(-c2ccccc2-c2nnn[nH]2)cc1
- Activity [7]: 39%
- Activity [8]: 38%
- IC50 [9]: 0.14 µM

Structure (SMILES): O=c1c(O)c(-c2ccc(O)c(O)c2)oc2cc(O[C@H]3O[C@H](CO)[C@@H](O)[C@H](O)[C@H]3O)cc(O)c12
- IC50 [10]: 2.1 µg/mL (≈ 4.52 µM)
- CC50 at 48 h [11]: > 100 µg/mL

Structure (SMILES): CC(=O)OC[C@H]1OC(OC(C)=O)[C@H](NCc2c(O)cc(O)c3c(=O)cc(-c4ccc(O)c(O)c4)oc23)[C@@H](OC(C)=O)[C@@H]1OC(C)=O (some centres not stated)
- MIC [12]: 1 µg/mL (≈ 1.55 µM)
- MIC [13]: 0.5 µg/mL (≈ 0.775 µM)
- IC50 [14]: 0.25 µg/mL (≈ 0.387 µM)
- IC50 [15]: 0.25 µg/mL (≈ 0.387 µM)
- MIC [16]: 2 µg/mL (≈ 3.1 µM)
- MIC [17]: 0.05 µg/mL (≈ 0.0775 µM)

Structure (SMILES): O=c1c(O)c(-c2ccc(O)c(O)c2)oc2c(CN3CCCCC3)c(O)cc(O)c12
- Kd [5]: > 2000 µM
- inhibition [6]: 23.2%

Structure (SMILES): COc1cc(OC)c2/c(=[S+]/C)c(OC)c(-c3ccc(OC)c(OC)c3)oc2c1.[I-]
- Activity [18]: 38.1%
- Activity [19]: 0.05 mM
- IC50 [20]: 1.84 µM

Structure (SMILES): C[C@@H]1O[C@@H](OC[C@H]2O[C@@H](Oc3c(-c4ccc(O)c(O)c4)oc4c(CN5CCCC5)c(O)c(CN5CCCC5)c(O)c4c3=O)[C@H](O)[C@@H](O)[C@@H]2O)[C@H](O)[C@H](O)[C@H]1O
- IC50 [21]: 7.57 µM

Structure (SMILES): COc1cc(OC)c2/c(=N/c3cc(OC)c(OC)c(OC)c3)c(OC)c(-c3ccc(OC)c(OC)c3)oc2c1
- IC50 [19]: 220 µM

Structure (SMILES): COc1cc(OC)c2c(=O)c(OC)c(-c3ccc(OC)c(OC)c3)oc2c1
- Activity [18]: 43.7%
- IC50 [19]: 620 µM
- IC50 [20]: 2.04 µM

Structure (SMILES): O=c1c(O)c(-c2ccc(O)c(O)c2)oc2cc(O)cc(O)c12 [QUERCETIN]
- MIC [1]: 37.5 µg/mL (≈ 124 µM)
- inhibition [22]: 50%
- Activity [23]: 8.4%
- Activity [24]: 15.6%
- MIC [2]: 37.5 µg/mL (≈ 124 µM)
- Ki [25]: 9.34 µM
- MIC [3]: 37.5 µg/mL (≈ 124 µM)
- Activity [26]: 44.1%
- Activity [27]: 80%
- inhibition [28]: 50%
- IC50 [29]: 49.1 µM
- Activity [30]: 24.7%
- Activity [31]: 70.8%
- MIC [4]: 37.5 µg/mL (≈ 124 µM)
- Activity [32]: 918 kcal/mol
- Activity [33]: 694 kcal/mol
- Activity [34]: 939 kcal/mol
- IC50 [19]: 4 µM

Structure (SMILES): COc1cc(-c2oc3ccccc3c(=O)c2O)cc(OC)c1OC
- fold change (FC) [35]: 3
- fold change (FC) [36]: 1.5
- IC50 [37]: 3.3 µM

Structure (SMILES): Nc1c(-c2ccc(O)c(O)c2)oc2cc(O)cc(O)c2c1=O
- Activity [27]: 80%

Structure (SMILES): O=C(O)CC[C@H](NC(=O)Oc1ccc(-c2oc3cc(O)cc(O)c3c(=O)c2O)cc1O)C(=O)O
- deltaH [38]: 47.2 kcal/mol
- GI50 [39]: 6 µM
- RatioGI50 [40]: 17
